# Results taken from ChEMBL document CHEMBL3044800, “Synthesis, characterization and anticancer activity of 3-aza-analogues of DP-7” (Med Chem Res, 2012).
# The source made the active and inactive calls. The calls are words filed in the database; no cut-off is given here.
# Target: T1, ATP-dependent translocase ABCB1 (Homo sapiens, UniProt P08183)
# Experiment: Inhibition of MDR1 (unknown origin)-mediated rhodamine 123 uptake expressed in mouse L5178Y cells assessed as fluorescence activity ratio at 4 uM by flow cytometry relative to untreated control
# Assay type: cell-based
# T1 sequence (P08183 whole entry): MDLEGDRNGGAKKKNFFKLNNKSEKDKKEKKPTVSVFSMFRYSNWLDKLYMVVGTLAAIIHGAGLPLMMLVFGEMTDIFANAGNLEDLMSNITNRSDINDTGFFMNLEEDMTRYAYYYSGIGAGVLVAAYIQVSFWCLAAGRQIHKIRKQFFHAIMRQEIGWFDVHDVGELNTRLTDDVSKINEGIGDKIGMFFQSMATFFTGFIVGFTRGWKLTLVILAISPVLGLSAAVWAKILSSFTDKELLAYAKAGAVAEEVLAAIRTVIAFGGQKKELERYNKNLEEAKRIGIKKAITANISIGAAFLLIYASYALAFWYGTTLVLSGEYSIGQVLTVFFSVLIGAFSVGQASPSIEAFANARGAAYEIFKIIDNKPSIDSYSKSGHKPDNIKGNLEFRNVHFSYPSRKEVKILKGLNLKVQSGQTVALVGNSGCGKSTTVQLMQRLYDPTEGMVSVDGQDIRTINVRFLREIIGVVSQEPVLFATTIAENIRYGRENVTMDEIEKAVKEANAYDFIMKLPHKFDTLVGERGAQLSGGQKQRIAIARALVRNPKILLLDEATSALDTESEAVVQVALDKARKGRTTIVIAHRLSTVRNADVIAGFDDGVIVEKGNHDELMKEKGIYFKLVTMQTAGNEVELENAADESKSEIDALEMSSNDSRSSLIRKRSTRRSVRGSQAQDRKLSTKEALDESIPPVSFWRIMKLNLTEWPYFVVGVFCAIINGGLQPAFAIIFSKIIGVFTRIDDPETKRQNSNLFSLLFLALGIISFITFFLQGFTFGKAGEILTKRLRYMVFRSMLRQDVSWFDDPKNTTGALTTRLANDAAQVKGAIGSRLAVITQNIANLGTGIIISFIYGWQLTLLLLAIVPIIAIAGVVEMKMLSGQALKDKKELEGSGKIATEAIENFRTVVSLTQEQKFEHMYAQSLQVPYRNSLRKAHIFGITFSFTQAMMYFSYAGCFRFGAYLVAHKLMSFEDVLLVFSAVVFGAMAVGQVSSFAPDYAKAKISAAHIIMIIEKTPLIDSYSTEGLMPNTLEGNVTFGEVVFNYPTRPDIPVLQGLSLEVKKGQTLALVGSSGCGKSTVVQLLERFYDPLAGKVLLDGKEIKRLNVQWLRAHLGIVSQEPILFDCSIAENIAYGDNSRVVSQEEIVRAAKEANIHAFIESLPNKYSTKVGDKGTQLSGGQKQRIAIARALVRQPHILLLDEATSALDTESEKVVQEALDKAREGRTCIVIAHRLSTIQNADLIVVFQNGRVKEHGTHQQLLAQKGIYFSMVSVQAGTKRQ
row,SMILES,RLU
1,CC1=C(C(=O)c2ccccc2)C(c2c[nH]c3ccccc23)NC(=O)N1 (stereo unspecified),78.56
2,CC1=C(C(=O)c2ccccc2)C(c2cccc(Oc3ccccc3)c2)NC(=S)N1 (stereo unspecified),3.68
3,COc1cc(C2NC(=S)NC(C)=C2C(=O)c2ccccc2)cc(OC)c1OC (stereo unspecified),0.93
4,CC1=C(C(=O)c2ccccc2)C(c2cccc(Cl)c2)NC(=S)N1 (stereo unspecified),1.21
5,COc1cc(OC)cc(C2NC(=O)NC(C)=C2C(=O)c2ccccc2)c1 (stereo unspecified),1.15
6,CC1=C(C(=O)c2ccccc2)C(c2ccco2)NC(=O)N1 (stereo unspecified),1.26
7,CC1=C(C(=O)c2ccccc2)C(c2ccccc2O)NC(=S)N1 (stereo unspecified),1.03
8,CC1=C(C(=O)c2ccccc2)C(c2cccc(Br)c2)NC(=O)N1 (stereo unspecified),1.15
9,CC1=C(C(=O)c2ccccc2)C(c2ccccc2Cl)NC(=S)N1 (stereo unspecified),1.17
10,COc1ccc(C2NC(S)=NC(C)=C2C(=O)c2ccccc2)cc1OC (stereo unspecified),1.28
11,CC1=C(C(=O)c2ccccc2)C(c2cccc(Cl)c2)NC(=O)N1 (stereo unspecified),0.89
12,CC1=C(C(=O)c2ccccc2)C(c2ccc(C#N)cc2)NC(=O)N1 (stereo unspecified),2.11
13,CC1=C(C(=O)c2ccccc2)C(/C=C/c2ccccc2)NC(=O)N1 (stereo unspecified),0.99
14,CC1=C(C(=O)c2ccccc2)C(c2ccccc2)NC(=S)N1 (stereo unspecified),0.97
15,CC1=C(C(=O)c2ccccc2)C(/C=C/c2ccccc2)NC(=S)N1 (stereo unspecified),1.28
16,CC1=C(C(=O)c2ccccc2)C(c2ccccc2[N+](=O)[O-])NC(=S)N1 (stereo unspecified),0.88
17,CC1=C(C(=O)c2ccccc2)C(c2ccccc2Cl)NC(=O)N1 (stereo unspecified),0.98
18,CC1=C(C(=O)c2ccccc2)C(c2cc(Br)c(O)c(Br)c2)NC(=O)N1 (stereo unspecified),0.82
19,CC1=C(C(=O)c2ccccc2)C(c2ccc(Cl)cc2)NC(=O)N1 (stereo unspecified),0.96
20,CC1=C(C(=O)c2ccccc2)C(c2cccc([N+](=O)[O-])c2)NC(=O)N1 (stereo unspecified),1.39
21,CC1=C(C(=O)c2ccccc2)C(c2ccc(Cl)cc2)NC(=S)N1 (stereo unspecified),1.03
22,CC1=C(C(=O)c2ccccc2)C(c2ccccc2[N+](=O)[O-])NC(=O)N1 (stereo unspecified),0.94
23,CC1=C(C(=O)c2ccccc2)C(c2cccc3ccccc23)NC(=O)N1 (stereo unspecified),29.87
24,CC1=C(C(=O)c2ccccc2)C(c2cccc(Br)c2)NC(=S)N1 (stereo unspecified),1.11
25,CC1=C(C(=O)c2ccccc2)C(c2c3ccccc3cc3ccccc23)NC(=O)N1 (stereo unspecified),4.57
26,CC1=C(C(=O)c2ccccc2)C(c2cccc(Oc3ccccc3)c2)NC(=O)N1 (stereo unspecified),1.23
27,CC1=C(C(=O)c2ccccc2)C(c2cccc(O)c2)NC(=O)N1 (stereo unspecified),0.97
28,CC1=C(C(=O)c2ccccc2)C(c2ccccc2)NC(=O)N1 (stereo unspecified),1.09
29,COc1ccc(OC)c(C2NC(=O)NC(C)=C2C(=O)c2ccccc2)c1 (stereo unspecified),36.85
30,COc1cc(C2NC(=O)NC(C)=C2C(=O)c2ccccc2)cc(OC)c1OC (stereo unspecified),0.96

# Target: T1, ATP-dependent translocase ABCB1
# Experiment: Inhibition of MDR1 (unknown origin)-mediated rhodamine 123 uptake expressed in mouse L5178Y cells assessed as fluorescence activity ratio at 21.99 uM by flow cytometry relative to untreated control
# Assay type: cell-based
row,SMILES,RLU
1,COc1ccc(CCN(C)CCCC(C#N)(c2ccc(OC)c(OC)c2)C(C)C)cc1OC (stereo unspecified) [VERAPAMIL],4.26

# Test system: L5178Y
# Experiment: Antiproliferative activity against Mus musculus (mouse) L5178Y cells transfected with mdr1 (unknown origin) after 72 hr by MTT assay
# Assay type: functional, cell-based
row,SMILES,Activity
1,CC1=C(C(=O)c2ccccc2)C(c2c[nH]c3ccccc23)NC(=O)N1 (stereo unspecified),Active
2,CC1=C(C(=O)c2ccccc2)C(c2cccc(Oc3ccccc3)c2)NC(=S)N1 (stereo unspecified),Active
3,CC1=C(C(=O)c2ccccc2)C(c2cccc3ccccc23)NC(=O)N1 (stereo unspecified),Active
4,COc1ccc(OC)c(C2NC(=O)NC(C)=C2C(=O)c2ccccc2)c1 (stereo unspecified),Active

# Target: Voltage-gated L-type calcium channel (Rattus norvegicus, UniProt P22002+Q02485+P27732)
# Experiment: Inhibition of L-type calcium channel in Rattus norvegicus (rat) heart artery myocytes
# Assay type: tissue-based
row,SMILES,IC50 [nM]
1,CC1=C(C(=O)c2ccccc2)C(c2cccc(Oc3ccccc3)c2)C(C(=O)c2ccccc2)=C(C)N1,1120
